Assay results as given in ChEMBL document CHEMBL1136406, “Amide analogues of TSA: synthesis, binding mode analysis and HDAC inhibition” (Bioorg Med Chem Lett, 2003).

Target: Histone deacetylase
Description: Inhibitory activity against histone deacetylase (HDAC)

Row | IC50 | Structure (SMILES)
1 | 0.359 µM | C[C@H](CCCCC(=O)NO)NC(=O)c1ccc(N(C)C)cc1
2 | 0.152 µM | CN(C)c1ccc(C(=O)NCCCCCC(=O)NO)cc1
3 | 12.187 µM | C[C@H](/C=C/C=C/C(=O)NO)NC(=O)c1ccc(N(C)C)cc1
